Reference: US5919635A (ZymoGenetics, Inc., priority 1995, dated 1999)

Tests used:
[1] = test system: Human Glucagon Receptor (pLJ6') in BHK570 cells; assay: In situ binding of iodinated glucagon, pLJ6'-transfected BHK570 clones
Experimental: (§1) To prepare the transfectants for the ^125 I-glucagon binding assay, the spent media were aspirated from the cells, and the cells were washed three times with cold (4° C.) PBS. After the final wash, the cells were covered with Binding Media (Table 2) and incubated for ten minutes at room temperature. The media were replaced with 0.5 ml of Binding Media containing 0.5 nM ^125 I-glucagon (Amersham receptor grade, specific activity 2000 Ci/mmole; Amersham). The cells were then rocked at 30° C. for one hour. […] The media were aspirated from the cells, and the cells were washed three times with cold (4° C.) PBS. After the final wash, the cells were fixed with 1 ml of 2.5% glutaraldehyde in PBS at room temperature for 20 minutes. The glutaraldehyde was removed, and the cells were rinsed three time with PBS. The slides were air dried for one hour at room temperature, dipped in liquid photographic emulsion (Eastman Kodak Co., Rochester, N.Y.) according the manufacturer's directions, and dried at room temperature in the dark for at least 30 minutes. The slides were then plated in a light-proof box for 72 hours at 4° C.
Transfected cells were selected in the presence of G418 until single colonies were visible. Single colonies were cloned using cloning cylinders.

[2] = test system: Human Glucagon Receptor (pLJ6') in COS 7 cells; assay: In situ ^125 I-glucagon binding with emulsion autoradiography, pLJ6'-transfected COS 7 cells; conditions: 72 hours after transfection
Experimental: as §1
Plasmid pLJ6' was transfected into COS 7 cells using a DEAE-dextran procedure described above. The cells were grown on glass chamber slides (as described in Example 3) for 72 hours after transfection.

[3] = molecular target: rat glucagon receptor (pLJ4 transfectants) (Rattus norvegicus, UniProt P30082); assay: Intracellular calcium response (fura-2 imaging) of pLJ4 BHK transfectants; format: cell-based; conditions: 100 nM final glucagon; resting value approximately 150 nM; from calibration experiments
Sequence of rat glucagon receptor (pLJ4 transfectants) (P30082 27-485): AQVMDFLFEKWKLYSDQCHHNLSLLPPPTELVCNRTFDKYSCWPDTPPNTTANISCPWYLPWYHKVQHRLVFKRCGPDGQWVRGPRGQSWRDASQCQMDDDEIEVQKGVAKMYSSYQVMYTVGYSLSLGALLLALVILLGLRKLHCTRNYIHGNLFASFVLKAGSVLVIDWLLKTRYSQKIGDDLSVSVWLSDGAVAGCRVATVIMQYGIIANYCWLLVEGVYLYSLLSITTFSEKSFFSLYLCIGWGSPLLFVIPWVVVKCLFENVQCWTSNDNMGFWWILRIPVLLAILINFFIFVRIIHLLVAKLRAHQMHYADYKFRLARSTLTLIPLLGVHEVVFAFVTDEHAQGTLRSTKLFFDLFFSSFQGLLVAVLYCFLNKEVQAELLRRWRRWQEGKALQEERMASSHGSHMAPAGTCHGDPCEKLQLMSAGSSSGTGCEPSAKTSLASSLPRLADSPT
Experimental: E. Intracellular Calcium Concentration Determination
Plasmid pLJ4 BHK transfectants seeded into 2 well coverglass chambers (NUNC) at 5×10^4 cells per chamber. The cells were grown for between one and three days under normal culture conditions in methotrexate selection medium. The medium was removed by aspiration, and the chambers were rinsed twice with 1 ml Imaging Buffer (Table 3). The cells were incubated for 30 minutes in the dark at room temperature with 0.5 ml of Fura-2 AM Solution (Table 3). After incubation, the Fura-2 AM Solution was removed, and the cells were rinsed with 1 ml Imaging Buffer three times. After the final rinse, 0.5 ml of buffer was left in each chamber. […]
Imaging was performed on a Nikon Diaphot inverted fluorescence microscope equipped with a mercury arc lamp and 10× and 40× Nikon Fluor dry objective lenses. Experiments were controlled and analysed using a Sun SPARC II workstation and Inovision (Research Triangle Park, N.C.) RATIOTOOL software. […] Emission images were directed by a dichroic mirror (380 nm cutoff) to a Dage-MTI 72 CCD camera equipped with a Genesis II image intensifier and digitally recorded by the software.
Intracellular calcium concentration was monitored by calculating a ratio of emission intensities at each of the two excitation wavelenths (340/380) for each pixel of the digital microscopic image field (512×480 pixels). […]

[4] = molecular target: T1, rat glucagon receptor (Rattus norvegicus, UniProt P30082); assay: cAMP response of clone KZ6/rGR-DHFR-2 by cAMP [^125 I] scintillation proximity assay; format: cell-based; conditions: 10 minutes at 37° C., 10 μM IBMX, read-out: ED50 (the source's name)
T1 construct: pLJ4 contained an approximately 2 kb insert encoding a 485 amino acid protein; expressed in transfected cells; host or cells: BHK/KZ6-19-46 (BHK570 with CRE-luciferase plasmid KZ6), clone KZ6/rGR-DHFR-2
T1 sequence (P30082 27-485): as above
Experimental: Briefly, 100 μl of 2×10^5 cells per ml KZ6/rGR-DHFR-2 cells were plated into the wells of a multi-well culture dish and grown overnight in selection media.
The cells were incubated with the agonists for 10 minutes at 37° C., 5% CO2. Following incubation, the cells were lysed by the addition of 200 μl of boiling water to each well. After 15 minutes the supernatants were collected and diluted 1:5 or 1:40 in acetate buffer (cAMP [^125 I] Scintillation Proximity Assay System (Amersham)). Samples were acetylated using triethylamine and acetic anhydride according to the protocol provided by the manufacturer.
A 100 μl aliquot of each acetylated sample was combined with 75 μl of ^125 I-cAMP, 75 μl anti-succinyl cAMP antisera and 75 μl of donkey anti-rabbit IgG coupled SPA beads (all assay solutions provided in the cAMP [^125 I] Scintillation Proximity Assay System (Amersham)) in a well of an LKB T-tray. The trays were sealed and incubated overnight with continuous shaking on a rotary platform shaker at 200 rpm. The samples were counted in a 1205 BETAPLATE liquid scintillation counter (Pharmacia LKB Instruments Inc., Gaithersburg, Md.). A standard curve of 2-128 fmol acetylated cAMP was also run. Total ^125 I-cAMP bound and non-specific binding were also determined.

Substance: glucagon: 29 amino acid hormone produced by the alpha cells of pancreatic islets; human glucagon (Sigma)
- binding of glucagon by clones (in words) [1]: shown to bind glucagon
- cells transfected with pLJ6' that bound glucagon in a specific fashion [2]: Greater than 50%
- peak intracellular calcium concentration [3]: approximately 400 nM
- EC50 [4]: 0.25 nM
